IC50 data for 36 molecules are collected here from patent US20230339866A1, “Quinazoline compounds and the use thereof in the treatment of cancer” (TROBIO THERAPEUTICS PTY LTD, priority 2020, published 2023).

One assay relates to A549 (NSCLC). Briefly: Anti-proliferative activity (Cell-Titre luminescence) against A549 non-small cell lung cancer cells. Conditions: Homo sapiens, 72 h exposure, Cell-Titre luminescent reagent. It counts as cell-based. How it is done:
(§1) The ability of compounds of the invention to inhibit the proliferation of cancer cells representative of non-small cell lung cancer and ovarian cancer (Table 2), pancreatic cancer, colorectal cancer and prostate cancer (Table 3) was assessed. Briefly, a predetermined number of cells as calculated from cell growth assays for each of the cell lines employed were seeded into their respective culture medium (using ATCC culture parameters—http://www.atcc.org) and cultured for 24 h at 37° C. and 5% CO2 in 96-well culture plates. Once attached, each cell line was then exposed to various concentrations of each respective analogue (30, 10, 3, 1, 0.3 and 0.1 μM), cultured for a further 72 h and exposed to Cell-Titre luminescent reagent (100 μL/well) for a further 30 min. Luminescence was captured using an EnVision multilabel reader and the data for each analogue concentration compared against no treatment control. Cell viability was normalised to control (vehicle alone) and dose response curves, and half maximal effective concentration (EC50) values were determined using Graph Pad Prism 6 (nonlinear regression sigmoidal dose-response variable slope).

A further assay deals with A2780 (ovarian). Briefly: Anti-proliferative activity (Cell-Titre luminescence) against A2780 ovarian cancer cells. It counts as cell-based. Conditions: Homo sapiens, 72 h exposure, Cell-Titre luminescent reagent. How it is done: as §1

Some results are limits rather than exact numbers.

As to `CC(C)C(CNc1nc(-c2ccsc2)nc2ccccc12)N1CCN(C)CC1` (stereo not drawn) [Compound 1, N-(3-methyl-2-(4-methylpiperazin-1-yl)butyl)-2-(thiophen-3-yl)quinazolin-4-amine], the IC50 with A549 (NSCLC) (A549, 72 h) came out at 8.06 µM; in the assay on A2780 (ovarian) (A2780, 72 h), 8.59 µM.

In the case of `OCCNc1nc(NCc2cccc(C(F)(F)F)c2)nc2ccccc12` [Compound 2, 2-((2-((3-(trifluoromethyl)benzyl)amino)quinazolin-4-yl)amino)ethan-1-ol], the half-inhibitory concentration (IC50) was found to be 11.1 µM with A549 (NSCLC) (A549) and 10.7 µM with A2780 (ovarian) (A2780).

Regarding `CC(C)C(CNc1nc(-c2cccs2)nc2ccccc12)N1CCN(C)CC1` (stereo not drawn) [Compound 3, N-(3-methyl-2-(4-methylpiperazin-1-yl)butyl)-2-(thiophen-2-yl)quinazolin-4-amine], the IC50 with A549 (NSCLC) (A549, 72 h) turned out to be 5.92 µM; in the assay on A2780 (ovarian) (A2780, 72 h), 8.89 µM.

Regarding `CC(C)C(CNc1nc(-c2ccc[nH]2)nc2ccccc12)N1CCN(C)CC1` (stereo not drawn) [Compound 4, N-(3-methyl-2-(4-methylpiperazin-1-yl)butyl)-2-(1H-pyrrol-2-yl)quinazolin-4-amine], the IC50 in the assay on A549 (NSCLC) (A549, 72 h) is 8.56 µM; with A2780 (ovarian) (A2780, 72 h), 8.3 µM.

`CC(C)C(CNc1nc(-c2ccco2)nc2ccccc12)N1CCN(C)CC1` (stereo not drawn) [Compound 6, 2-(furan-2-yl)-N-(3-methyl-2-(4-methylpiperazin-1-yl)butyl)quinazolin-4-amine]: the IC50 was over 30 µM in the assay on A549 (NSCLC) (A549, 72 h) and over 30 µM with A2780 (ovarian) (A2780, 72 h).

On to `CC(C)C(CNc1nc(-c2ccoc2)nc2ccccc12)N1CCN(C)CC1` (stereo not drawn) [Compound 7, 2-(furan-3-yl)-N-(3-methyl-2-(4-methylpiperazin-1-yl)butyl)quinazolin-4-amine], for which the IC50 in the assay on A549 (NSCLC) (A549, 72 h) came to 10.2 µM; in the assay on A2780 (ovarian) (A2780, 72 h), 10.8 µM.

As to `CC(C)C(CNc1nc(N2CCCC2)nc2ccccc12)N1CCN(C)CC1` (stereo not drawn) [Compound 8, N-(3-methyl-2-(4-methylpiperazin-1-yl)butyl)-2-(pyrrolidin-1-yl)quinazolin-4-amine], the IC50 is over 30 µM in the assay with A549 (NSCLC) (A549, 72 h) and over 30 µM with A2780 (ovarian) (A2780, 72 h).

Consider `CC(C)C(CNc1nc(-n2cccc2)nc2ccccc12)N1CCN(C)CC1` (stereo not drawn) [Compound 9, N-(3-methyl-2-(4-methylpiperazin-1-yl)butyl)-2-(1H-pyrrol-1-yl)quinazolin-4-amine], for which the IC50 with A549 (NSCLC) (A549, 72 h) stood at 4.94 µM; in the assay with A2780 (ovarian) (A2780, 72 h) it was 5.79 µM.

Regarding `CN1CCN(CCNc2nc(-c3cccs3)nc3ccccc23)CC1` [Compound 10, N-(2-(4-methylpiperazin-1-yl)ethyl)-2-(thiophen-2-yl)quinazolin-4-amine], the IC50 is over 30 µM in the assay with A549 (NSCLC) (A549, 72 h) and over 30 µM in the assay with A2780 (ovarian) (A2780, 72 h).

For `CN1CCN(CCNc2nc(-c3ccc[nH]3)nc3ccccc23)CC1` [Compound 12, N-(2-(4-methylpiperazin-1-yl)ethyl)-2-(1H-pyrrol-2-yl)quinazolin-4-amine], the IC50 was 8.24 µM in the assay with A549 (NSCLC) (A549, 72 h) and 10.2 µM in the assay on A2780 (ovarian) (A2780, 72 h).

On to `CN1CCN(CCNc2nc(-c3ccco3)nc3ccccc23)CC1` [Compound 14, 2-(furan-2-yl)-N-(2-(4-methylpiperazin-1-yl)ethyl)quinazolin-4-amine], for which the IC50 in the assay on A549 (NSCLC) (A549, 72 h) was over 30 µM; in the assay on A2780 (ovarian) (A2780, 72 h) it was over 30 µM.

In the case of `CN1CCN(CCNc2nc(-c3ccoc3)nc3ccccc23)CC1` [Compound 15, 2-(furan-3-yl)-N-(2-(4-methylpiperazin-1-yl)ethyl)quinazolin-4-amine], the IC50 is over 30 µM in the assay on A549 (NSCLC) (A549, 72 h) and over 30 µM with A2780 (ovarian) (A2780, 72 h).

For the molecule `CN1CCN(CCNc2nc(N3CCCC3)nc3ccccc23)CC1` [Compound 16, N-(2-(4-methylpiperazin-1-yl)ethyl)-2-(pyrrolidin-1-yl)quinazolin-4-amine], the IC50 is over 30 µM in the assay on A549 (NSCLC) (A549, 72 h) and 22.5 µM with A2780 (ovarian) (A2780, 72 h).

For `CN1CCN(CCNc2nc(-n3cccc3)nc3ccccc23)CC1` [Compound 17, N-(2-(4-methylpiperazin-1-yl)ethyl)-2-(1H-pyrrol-1-yl)quinazolin-4-amine], the IC50 in the assay on A549 (NSCLC) (A549, 72 h) was over 30 µM; in the assay with A2780 (ovarian) (A2780, 72 h), 22.7 µM.

In the case of `OCCNc1nc(-c2cccs2)nc2ccccc12` [Compound 18, 2-((2-(thiophen-2-yl)quinazolin-4-yl)amino)ethan-1-ol], the concentration for half-maximal inhibition (IC50) is over 30 µM with A549 (NSCLC) (A549, 72 h) and over 30 µM in the assay on A2780 (ovarian) (A2780, 72 h).

With `OCCNc1nc(-c2ccsc2)nc2ccccc12` [Compound 19, 2-((2-(thiophen-3-yl)quinazolin-4-yl)amino)ethan-1-ol], the IC50 was over 30 µM in the assay with A549 (NSCLC) (A549, 72 h) and over 30 µM in the assay on A2780 (ovarian) (A2780, 72 h).

With `OCCNc1nc(-c2ccc[nH]2)nc2ccccc12` [Compound 20, 2-((2-(1H-pyrrol-2-yl)quinazolin-4-yl)amino)ethan-1-ol], the IC50 in the assay on A549 (NSCLC) (A549, 72 h) was over 30 µM; with A2780 (ovarian) (A2780, 72 h), over 30 µM.

Take `OCCNc1nc(-c2cc[nH]c2)nc2ccccc12` [Compound 21, 2-((2-(1H-pyrrol-3-yl)quinazolin-4-yl)amino)ethan-1-ol]: the IC50 is over 30 µM with A549 (NSCLC) (A549, 72 h) and over 30 µM with A2780 (ovarian) (A2780, 72 h).

Regarding `OCCNc1nc(-c2ccco2)nc2ccccc12` [Compound 22, 2-((2-(furan-2-yl)quinazolin-4-yl)amino)ethan-1-ol], the IC50 was over 30 µM with A549 (NSCLC) (A549, 72 h) and over 30 µM with A2780 (ovarian) (A2780, 72 h).

As for `OCCNc1nc(-c2ccoc2)nc2ccccc12` [Compound 23, 2-((2-(furan-3-yl)quinazolin-4-yl)amino)ethan-1-ol], the IC50 in the assay with A549 (NSCLC) (A549, 72 h) was over 30 µM; with A2780 (ovarian) (A2780, 72 h) it was over 30 µM.

On to `OCCNc1nc(N2CCCC2)nc2ccccc12` [Compound 24, 2-((2-(pyrrolidin-1-yl)quinazolin-4-yl)amino)ethan-1-ol], for which the IC50 was over 30 µM in the assay with A549 (NSCLC) (A549, 72 h) and over 30 µM in the assay with A2780 (ovarian) (A2780, 72 h).

Consider `OCCNc1nc(-n2cccc2)nc2ccccc12` [Compound 25, 2-((2-(1H-pyrrol-1-yl)quinazolin-4-yl)amino)ethan-1-ol], for which the IC50 in the assay with A549 (NSCLC) (A549, 72 h) is over 30 µM; with A2780 (ovarian) (A2780, 72 h) it was over 30 µM.

With `OCCNc1nc(Nc2ccccc2)nc2ccccc12` [Compound 26, 2-((2-(phenylamino)quinazolin-4-yl)amino)ethan-1-ol], the IC50 in the assay on A549 (NSCLC) (A549, 72 h) is 22 µM; in the assay with A2780 (ovarian) (A2780, 72 h) it was 16.9 µM.

In the case of `OCCNc1nc(Nc2cccc(C(F)(F)F)c2)nc2ccccc12` [Compound 27, 2-((2-((3-(trifluoromethyl)phenyl)amino)quinazolin-4-yl)amino)ethan-1-ol], the IC50 came to 2.84 µM in the assay on A549 (NSCLC) (A549, 72 h) and 6.74 µM in the assay on A2780 (ovarian) (A2780, 72 h).

On to `OCCNc1nc(Nc2ccc(C(F)(F)F)cc2)nc2ccccc12` [Compound 28, 2-((2-((4-(trifluoromethyl)phenyl)amino)quinazolin-4-yl)amino)ethan-1-ol], for which the IC50 is over 30 µM in the assay with A549 (NSCLC) (A549, 72 h) and over 30 µM with A2780 (ovarian) (A2780, 72 h).

As to `COc1cccc(Nc2nc(NCCO)c3ccccc3n2)c1` [Compound 29, 2-((2-((3-methoxyphenyl)amino)quinazolin-4-yl)amino)ethan-1-ol], the IC50 in the assay with A549 (NSCLC) (A549, 72 h) worked out at 9.21 µM; in the assay with A2780 (ovarian) (A2780, 72 h) it was 6.91 µM.

With `COc1ccc(Nc2nc(NCCO)c3ccccc3n2)cc1` [Compound 30, 2-((2-((4-methoxyphenyl)amino)quinazolin-4-yl)amino)ethan-1-ol], the IC50 was over 30 µM in the assay with A549 (NSCLC) (A549, 72 h) and over 30 µM in the assay on A2780 (ovarian) (A2780, 72 h).

Take `COc1cccc(CNc2nc(NCCO)c3ccccc3n2)c1` [Compound 33, 2-((2-((3-methoxybenzyl)amino)quinazolin-4-yl)amino)ethan-1-ol]: the IC50 in the assay on A549 (NSCLC) (A549, 72 h) was 21 µM; in the assay with A2780 (ovarian) (A2780, 72 h), 8.95 µM.

As for `COc1ccc(CNc2nc(NCCO)c3ccccc3n2)cc1` [Compound 34, 2-((2-((4-methoxybenzyl)amino)quinazolin-4-yl)amino)ethan-1-ol], the IC50 is 14.1 µM in the assay with A549 (NSCLC) (A549, 72 h) and 12.8 µM with A2780 (ovarian) (A2780, 72 h).

As to `OCCNc1nc(NCCc2ccccc2)nc2ccccc12` [Compound 35, 2-((2-(phenethylamino)quinazolin-4-yl)amino)ethan-1-ol], the IC50 with A549 (NSCLC) (A549, 72 h) was over 30 µM; with A2780 (ovarian) (A2780, 72 h) it was 7.47 µM.

For the molecule `OCCNc1nc(NCCc2cccc(C(F)(F)F)c2)nc2ccccc12` [Compound 36, 2-((2-((3-(trifluoromethyl)phenethyl)amino)quinazolin-4-yl)amino)ethan-1-ol], the IC50 was 2.67 µM in the assay with A549 (NSCLC) (A549, 72 h) and 2.32 µM in the assay on A2780 (ovarian) (A2780, 72 h).

For the molecule `OCCNc1nc(NCCc2ccc(C(F)(F)F)cc2)nc2ccccc12` [Compound 37, 2-((2-((4-(trifluoromethyl)phenethyl)amino)quinazolin-4-yl)amino)ethan-1-ol], the IC50 came out at 3.82 µM with A549 (NSCLC) (A549, 72 h) and 3.82 µM with A2780 (ovarian) (A2780, 72 h).

Take `COc1cccc(CCNc2nc(NCCO)c3ccccc3n2)c1` [Compound 38, 2-((2-((3-methoxyphenethyl)amino)quinazolin-4-yl)amino)ethan-1-ol]: the IC50 was 26.8 µM in the assay on A549 (NSCLC) (A549, 72 h) and 18.8 µM in the assay on A2780 (ovarian) (A2780, 72 h).

Take `COc1ccc(CCNc2nc(NCCO)c3ccccc3n2)cc1` [Compound 39, 2-((2-((4-methoxyphenethyl)amino)quinazolin-4-yl)amino)ethan-1-ol]: the IC50 in the assay on A549 (NSCLC) (A549, 72 h) is over 30 µM; in the assay with A2780 (ovarian) (A2780, 72 h), 11.9 µM.

For `CN1CCN(CCNc2nc(Nc3ccccc3)nc3ccccc23)CC1` [Compound 40, N^4-(2-(4-methylpiperazin-1-yl)ethyl)-N^2-phenylquinazoline-2,4-diamine], the IC50 with A549 (NSCLC) (A549, 72 h) is 6.27 µM; in the assay with A2780 (ovarian) (A2780, 72 h), 4.34 µM.

Take `CN1CCN(CCNc2nc(Nc3ccc(C(F)(F)F)cc3)nc3ccccc23)CC1` [Compound 42, N^4-(2-(4-methylpiperazin-1-yl)ethyl)-N^2-(4-(trifluoromethyl)phenyl)quinazoline-2,4-diamine]: the IC50 was 4.94 µM in the assay on A549 (NSCLC) (A549, 72 h) and 1.69 µM in the assay with A2780 (ovarian) (A2780, 72 h).

The term IC50 denotes the point on the concentration scale where inhibition reaches its midpoint. Lower therefore signals inhibition by little substance.
